Test results taken from publication PMC6161602, “Synthesis and characterisation of (Z)-styrylbenzene derivatives as potential selective anticancer agents” (Journal of Enzyme Inhibition and Medicinal Chemistry, 2018).

Tests used:
[1] = test system: L-02 cells; parameters: method as in PMID 27887843; conditions: L-02, printed in Figure 1, previous experiment ref 2; cited from earlier work
[2] = test system: HeLa cells; parameters: method as in PMID 27887843; conditions: printed in Figure 1, previous experiment ref 2; cited from earlier work
[3] = test system: MGC-803 cells; assay: MTT cell growth inhibition assay, MGC-803; format: cell-based, human; conditions: for IC50: MTT, 48 h incubation, MGC-803
Text: (§1) All human cell lines were used in this study. MGC-803 late-stage differentiation gastric cancer cell, A549 lung cancer cell, HepG2 hepatoma cell, AGS gastric cancer cell, BEL-7402 liver cancer cell, HCT-116 colorectal cancer cell, HeLa cervical cancer cell, SGC-7901 early differentiation gastric cancer cell, L-02 normal liver cell, MCF-7 breast cancer cell, and MCF-10A normal breast cell were initially purchased from American Type Culture Collection (ATCC, Manassas, VA, USA). RPMI-1640 media, Dulbecco’s modified Eagle’s medium (DMEM), and foetal bovine serum (FBS) were provided from Gibco Company (Grand Island, NY, USA). The cells were maintained in DMEM or RPMI-1640, supplemented with 10% FBS, 100 IU/mL penicillin and […] (Grand Island, NY, USA), and at 37 °C in a humidified atmosphere containing 5% CO2.
(§2) Cells were plated in 96-well plates at a density of 30–40% to ensure exponential growth throughout the experimental period, and then allowed to adhere for 1 day[21]. Next, the cells were treated with four serial concentrations (1, 10, 50, and 100 µM) of each compound. Taxol, CA-4, and CA-4P (phosphorylated form of CA-4) were used as positive controls. After 48 h incubation, MTT solution was added to each well at a final concentration of 2 mg/mL, and incubated for an additional 4 h. Next, the MTT solution was removed and 150 µL of dimethyl sulphoxide (DMSO)/well was added (Sigma-Aldrich, St Louis, MO, USA). The plates were shaken vigorously at RT to ensure complete solubilisation, and absorption at 492 nm was determined.
(§3) According to standard protocol, preliminary in vitro anti-proliferative activities of the synthesised compounds were evaluated by MTT assay, using nine human cancer cell lines (MGC-803, A549, HepG2, AGS, BEL-7402, HCT116, HeLa, SGC-7901, and MCF-7) and two normal human cell lines (L-02 and MCF-10A), and compared with those of CA-4, CA-4P, and taxol.

[4] = test system: SGC-7901 early differentiation gastric cancer cell; assay: MTT cell growth inhibition assay, SGC-7901; format: cell-based, human; conditions: Homo sapiens, 48 h incubation
Text: as §1, §2, §3

[5] = test system: HCT116 cells; assay: MTT cell growth inhibition assay, HCT116; format: cell-based, human; conditions: for IC50: Homo sapiens, HCT-116, MTT, 48 h incubation, HCT116
Text: as §1, §2, §3

[6] = test system: MCF-7 breast cancer cell; assay: MTT cell growth inhibition assay, MCF-7; format: cell-based, human; conditions: for IC50: Homo sapiens, MCF7, MTT, 48 h incubation, MCF-7
Text: as §1, §2, §3

[7] = test system: HeLa cervical cancer cell; assay: MTT cell growth inhibition assay, HeLa; format: cell-based, human; conditions: Homo sapiens, 48 h incubation
Text: as §1, §2, §3

[8] = test system: BEL-7402 cells; assay: MTT cell growth inhibition assay, BEL-7402; format: cell-based, human; conditions: for IC50: Homo sapiens, MTT, 48 h incubation, Bel-7402
Text: as §1, §2, §3

[9] = test system: L-02 normal liver cell; assay: MTT cell growth inhibition assay, L-02 (normal); format: cell-based, human; conditions: Homo sapiens, 48 h incubation, L-02 normal cells
Text: as §1, §2, §3

[10] = test system: A549 lung cancer cell; assay: MTT cell growth inhibition assay, A549; format: cell-based, human; conditions: for IC50: Homo sapiens, MTT, 48 h incubation, A549
Text: as §1, §2, §3

[11] = test system: MCF-10A normal breast cell; assay: MTT cell growth inhibition assay, MCF-10A (normal); format: cell-based, human; conditions: Homo sapiens, 48 h incubation, MCF-10A normal cells
Text: as §1, §2, §3

[12] = test system: nine human cancer cell lines (MGC-803, A549, HepG2, AGS, BEL-7402, HCT116, HeLa, SGC-7901, and MCF-7); assay: MTT assay, panel of cell lines (result in words); format: cell-based; conditions: against all nine cancer cell lines
Text: as §1, §2, §3

[13] = test system: AGS cells; assay: MTT cell growth inhibition assay, AGS; format: cell-based, human; conditions: for IC50: Homo sapiens, MTT, 48 h incubation, AGS
Text: as §1, §2, §3

[14] = test system: HepG2 hepatoma cell; assay: MTT cell growth inhibition assay, HepG-2; format: cell-based, human; conditions: for IC50: Homo sapiens, HepG2, MTT, 48 h incubation, HepG-2
Text: as §1, §2, §3

[15] = test system: BEL-7402 cells; assay: Analysis of apoptosis by flow cytometry (Annexin V-FITC/PI); format: cell-based, human; conditions: BEL-7402, 0.1 µM, 12 h; vehicle 4.7%
Procedure: Apoptosis was detected using an apoptosis detection kit. BEL-7402 cells were plated in 6-well plates (5.0 × 10^5 cells/well) and incubated at 37 °C overnight. Exponentially growing cells were then incubated with 6h at either 0.01 or 0.1 µM, or taxol at 0.1 µM. Vehicle group was treated with 0.1% DMSO. Following 12 h of incubation, cells were analysed for apoptosis as previously described, using a FACSCalibur flow cytometer with Cell Quest software (Becton-Dickinson, Franklin Lakes, NJ, USA).

SMILES	IC50 ([3]; Homo sapiens, MGC-803, 48 h) [µM]	IC50 [4] [µM]	IC50 [5] [µM]	IC50 [6] [µM]	IC50 [7] [µM]	IC50 [8] [µM]	melting point [°C]	IC50 [10] [µM]	IC50 [13] [µM]	IC50 [14] [µM]	IC50 [9] [µM]	IC50 [11] [µM]	in vitro anticancer activity [12]	other results
CCOc1ccc(/C=C(\C#N)c2cc(OC)cc(OC)c2)cc1 [Compound 3]	–	–	–	–	–	–	–	–	–	–	–	–	–	IC50 [1]: > 100 µM; IC50 [2]: 7.7 µM
COc1cccc(/C=C(\C#N)c2cc(OC)c(OC)c(OC)c2)c1 [Compound 6c, (Z)-3-(3-Methoxyphenyl)-2-(3,4,5-trimethoxyphenyl)acrylonitrile]	–	> 100	> 100	65.1 ± 6.64	> 100	> 100	144 to 146	> 100	> 100	> 100	> 100	> 100	extremely poor	IC50 ([3]; Homo sapiens): 22.6 ± 9.25 µM
Oc1ccc(/C=C/c2cc(O)cc(O)c2)cc1 [Resveratrol, (E)-3,5,4′-trihydroxystilbene]	–	–	–	–	–	–	–	–	–	–	–	–	–	IC50 [2]: 120 µM
CC(=O)O[C@H]1C(=O)[C@@]2(C)[C@H]([C@H](OC(=O)c3ccccc3)[C@]3(O)C[C@H](OC(=O)[C@H](O)[C@@H](NC(=O)c4ccccc4)c4ccccc4)C(C)=C1C3(C)C)[C@]1(OC(C)=O)CO[C@@H]1C[C@@H]2O [Taxol, reference compound]	< 0.06	> 100	0.03 ± 0.01	0.08 ± 0.01	13 ± 0.47	0.09 ± 0.02	–	0.44 ± 0.02	0.02 ± 0.01	0.94 ± 0.03	> 100	0.18 ± 0.02	–	IC50 [3]: 0.06 ± 0.01 µM; SI IC50 (L-02/MGC-803) ([3]; selectivity index, IC50 (L-02)/IC50 (MGC-803)): >1666; SI IC50 (L-02/HCT116) ([5]; selectivity index, IC50 (L-02)/IC50 (HCT116)): >3333; SI IC50 (MCF-10A/MCF-7) ([6]; selectivity index, IC50 (MCF-10A)/IC50 (MCF-7)): >2.2; SI IC50 (L-02/BEL-7402) ([8]; selectivity index, IC50 (L-02)/IC50 (BEL-7402)): >1111; total apoptotic cells (early + late apoptotic cells) [15]: 10.7%; SI IC50 (L-02/A549) ([10]; selectivity index, IC50 (L-02)/IC50 (A549)): >227.2; SI IC50 (L-02/AGS) ([13]; selectivity index, IC50 (L-02)/IC50 (AGS)): >5000; SI IC50 (L-02/HepG-2) ([14]; selectivity index, IC50 (L-02)/IC50 (HepG-2)): >106.3

Further lines, with some results ahead:

IC50 ([3]; Homo sapiens, MGC-803, 48 h) [µM]	IC50 [4] [µM]	IC50 [5] [µM]	IC50 [6] [µM]	IC50 [7] [µM]	IC50 [8] [µM]	melting point [°C]	IC50 [10] [µM]	IC50 [13] [µM]	IC50 [14] [µM]	SMILES	IC50 [9] [µM]	IC50 [11] [µM]	in vitro anticancer activity [12]	other results
> 100	> 100	> 100	> 100	> 100	> 100	174 to 176	> 100	> 100	> 100	COc1cc(/C(C#N)=C/c2ccc([N+](=O)[O-])cc2)cc(OC)c1OC [Compound 6a, (Z)-3-(4-Nitrophenyl)-2-(3,4,5-trimethoxyphenyl)acrylonitrile]	> 100	> 100	extremely poor	–
> 100	> 100	> 100	> 100	> 100	> 100	92 to 94	> 100	> 100	> 100	COc1cc(/C(C#N)=C/c2ccc(Oc3ccccc3)cc2)cc(OC)c1OC [Compound 6b]	> 100	> 100	extremely poor	–
> 100	> 100	32.1 ± 5.25	32.9 ± 17.6	> 100	31.2 ± 2.01	84 to 86	> 100	44.6 ± 9.11	> 100	COc1cc(/C=C(\C#N)c2cc(OC)c(OC)c(OC)c2)cc(OC)c1OC [Compound 6e, (Z)-2,3-Bis(3,4,5-trimethoxyphenyl)acrylonitrile]	70.6 ± 7.65	15.6 ± 2.45	weak anticancer activity	–
> 100	> 100	> 100	16 ± 5.67	> 100	44.6 ± 32.7	128 to 130	> 100	> 100	> 100	COc1cc(/C(C#N)=C/c2ccccn2)cc(OC)c1OC [Compound 7b, (Z)-3-(Pyridin-2-yl)-2-(3,4,5-trimethoxyphenyl)acrylonitrile]	> 100	33.4 ± 17.4	extremely poor	–
